# Measurements as given in PubChem BioAssay AID2060621 (Molecular Pharmacology Branch, DTP, NCI, 2025).
# System: 324938-238-R-J1-PDC complex spheroids viability
# Experiment: Anticancer human tumor 324938-238-R-J1-PDC patient-derived bladder carcinoma cell line growth inhibition [CLK]
# Settings: for IC50: curve of first compound; for viability, T/C: stronger effect = lower value
# How it was run: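 Patient-derived tumor cells grown as complex spheroids with HUVEC endothelial cells and mesenchymal stem cells, treated with drug combinations. Concentrations descend in half-log steps from near clinical Cmax, or from 10 microM if Cmax unknown.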
# [1] = second compound 0.0316 µM, first compound 0.0316 µM
# [2] = second compound 0.0316 µM, first compound 0.1 µM
# [3] = second compound 0.0316 µM, first compound 0.316 µM
# [4] = second compound 0.0316 µM, first compound 1 µM
# [5] = second compound 0.1 µM, first compound 0.0316 µM
# [6] = second compound 0.1 µM, first compound 0.1 µM
# [7] = second compound 0.1 µM, first compound 0.316 µM
# [8] = second compound 0.1 µM, first compound 1 µM
# [9] = second compound 0.316 µM, first compound 0.0316 µM
# [10] = second compound 0.316 µM, first compound 0.1 µM
# [11] = second compound 0.316 µM, first compound 0.316 µM
# [12] = second compound 0.316 µM, first compound 1 µM
# [13] = second compound 1 µM, first compound 0.0316 µM
# [14] = second compound 1 µM, first compound 0.1 µM
# [15] = second compound 1 µM, first compound 0.316 µM
# [16] = second compound 1 µM, first compound 1 µM
# [17] = second compound 3.16 µM, first compound 0.0316 µM
# [18] = second compound 3.16 µM, first compound 0.1 µM
# [19] = second compound 3.16 µM, first compound 0.316 µM
# [20] = second compound 3.16 µM, first compound 1 µM
# [21] = second compound 10 µM, first compound 0.0316 µM
# [22] = second compound 10 µM, first compound 0.1 µM
# [23] = second compound 10 µM, first compound 0.316 µM
# [24] = second compound 10 µM, first compound 1 µM
# 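Further: viability read after seven days of drug exposure.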
# 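Wherever viability, T/C is given: 100% = DMSO vehicle control wells.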
smiles,measurement,setting,value
CCN1CCN(Cc2ccc(Nc3ncc(F)c(-c4cc(F)c5nc(C)n(C(C)C)c5c4)n3)nc2)CC1 + CN1CCN(c2cc(C(=O)Nc3cc4cc(-c5cnn(C)c5)ccc4cn3)ccn2)CC1,IC50,second compound 0.0316 µM,64.8 nM
same,IC50,second compound 0.1 µM,5.84 nM
same,IC50,second compound 0.316 µM,< 3.16 nM
same,IC50,second compound 1 µM,< 3.16 nM
same,IC50,second compound 3.16 µM,< 3.16 nM
same,IC50,second compound 10 µM,< 3.16 nM
same,"viability, T/C","second compound 0.0316 µM, first compound 0.00316 µM",65%
same,"viability, T/C","second compound 0.0316 µM, first compound 0.01 µM",72.9%
same,"viability, T/C",[1],56.3%
same,"viability, T/C",[2],46.5%
same,"viability, T/C",[3],34.2%
same,"viability, T/C",[4],35.5%
same,"viability, T/C","second compound 0.1 µM, first compound 0.00316 µM",53%
same,"viability, T/C","second compound 0.1 µM, first compound 0.01 µM",47.2%
same,"viability, T/C",[5],42.1%
same,"viability, T/C",[6],42.3%
same,"viability, T/C",[7],34.2%
same,"viability, T/C",[8],31.3%
same,"viability, T/C","second compound 0.316 µM, first compound 0.00316 µM",23.8%
same,"viability, T/C","second compound 0.316 µM, first compound 0.01 µM",24.7%
same,"viability, T/C",[9],25%
same,"viability, T/C",[10],25.1%
same,"viability, T/C",[11],28.2%
same,"viability, T/C",[12],31.1%
same,"viability, T/C","second compound 1 µM, first compound 0.00316 µM",1.45%
same,"viability, T/C","second compound 1 µM, first compound 0.01 µM",1.54%
same,"viability, T/C",[13],1.57%
same,"viability, T/C",[14],2.36%
same,"viability, T/C",[15],1.73%
same,"viability, T/C",[16],0.69%
same,"viability, T/C","second compound 3.16 µM, first compound 0.00316 µM",0.12%
same,"viability, T/C","second compound 3.16 µM, first compound 0.01 µM",0.84%
same,"viability, T/C",[17],0.19%
same,"viability, T/C",[18],0.14%
same,"viability, T/C",[19],0.32%
same,"viability, T/C",[20],0.84%
same,"viability, T/C","second compound 10 µM, first compound 0.00316 µM",0.09%
same,"viability, T/C","second compound 10 µM, first compound 0.01 µM",0.19%
same,"viability, T/C",[21],0.2%
same,"viability, T/C",[22],0.11%
same,"viability, T/C",[23],0.15%
same,"viability, T/C",[24],0.2%
Nc1ccccc1NC(=O)c1ccc(CNC(=O)OCc2cccnc2)cc1 + CN1CCN(c2cc(C(=O)Nc3cc4cc(-c5cnn(C)c5)ccc4cn3)ccn2)CC1,IC50,second compound 0.0316 µM,1200 nM
same,IC50,second compound 0.1 µM,173 nM
same,IC50,second compound 0.316 µM,< 31.6 nM
same,IC50,second compound 1 µM,< 31.6 nM
same,IC50,second compound 3.16 µM,< 31.6 nM
same,IC50,second compound 10 µM,< 31.6 nM
same,"viability, T/C",[1],80.2%
same,"viability, T/C",[2],88.1%
same,"viability, T/C",[3],70.5%
same,"viability, T/C",[4],52.5%
same,"viability, T/C","second compound 0.0316 µM, first compound 3.16 µM",32.2%
same,"viability, T/C","second compound 0.0316 µM, first compound 10 µM",14.2%
same,"viability, T/C",[5],58.5%
same,"viability, T/C",[6],50%
same,"viability, T/C",[7],44.8%
same,"viability, T/C",[8],39.6%
same,"viability, T/C","second compound 0.1 µM, first compound 3.16 µM",30.6%
same,"viability, T/C","second compound 0.1 µM, first compound 10 µM",7.44%
same,"viability, T/C",[9],21.6%
same,"viability, T/C",[10],26%
same,"viability, T/C",[11],20.6%
same,"viability, T/C",[12],21.1%
same,"viability, T/C","second compound 0.316 µM, first compound 3.16 µM",24.1%
same,"viability, T/C","second compound 0.316 µM, first compound 10 µM",0.19%
same,"viability, T/C",[13],1.99%
same,"viability, T/C",[14],3.65%
same,"viability, T/C",[15],4%
same,"viability, T/C",[16],2.6%
same,"viability, T/C","second compound 1 µM, first compound 3.16 µM",0.16%
same,"viability, T/C","second compound 1 µM, first compound 10 µM",0.13%
same,"viability, T/C",[17],0.13%
same,"viability, T/C",[18],0.14%
same,"viability, T/C",[19],0.15%
same,"viability, T/C",[20],0.1%
same,"viability, T/C","second compound 3.16 µM, first compound 3.16 µM",0.1%
same,"viability, T/C","second compound 3.16 µM, first compound 10 µM",0.16%
same,"viability, T/C",[21],0.06%
same,"viability, T/C",[22],0.13%
same,"viability, T/C",[23],0.14%
same,"viability, T/C",[24],0.13%
same,"viability, T/C","second compound 10 µM, first compound 3.16 µM",0.18%
same,"viability, T/C","second compound 10 µM, first compound 10 µM",0.2%
